Columns and labels:
[1] = Acute toxicity, intravenous, mice; details: mouse, in vivo, mice (ICR, male, 20-24 g)
Description: LD50 values of the following test compounds were 3 g/kg or more when the compounds were intravenously administered to mice (ICR, male, body weight 20-24 g).

[2] = Urinary recovery after oral administration to mice; assay type: in vivo, mice (ICR, male); details: urine, 1 mg/mouse in 0.5% CMC, 0-6 hours, 5 mice, mean ± S.E., free carboxylic acid by bioassay with Kl. pneumoniae ATCC 10031
Procedure: A test compound was orally administered to mice (ICR, male, 4 weeks old) in an amount of 1 mg/mouse, and a urinary recovery was determined.
In the test compounds (No. 1 and No. 2), the ester group is easily removed in a living body, whereby the compounds are converted into the corresponding free carboxylic acids. Therefore, the urinary recovery was determined by quantitatively measuring the free carboxylic acids excreted into urine.
Administration method: A test compound suspended in 0.5% CMC (Carboxy Methyl Cellulose) was orally administered.
Quantitative measurement method: The amount of free carboxylic acid was measured by bioassay (a paper-disc method) using the test organism mentioned in Table 2.

Structure (SMILES) | LD50 [1] | dose excreted at 6 h [2]
CO/N=C(\C(=O)NC1C(=O)N2C(C(=O)O)=C(Cn3nc(C)ccc3=O)CSC12)c1csc(N)n1 (centres unmarked) | ≥ 3000 mg/kg | –
CO/N=C(\C(=O)NC1C(=O)N2C(C(=O)O)=C(Cn3ccn(C)c(=O)c3=O)CSC12)c1csc(N)n1 (centres unmarked) | ≥ 3000 mg/kg | –
Cc1ccc(=O)n(CC2=C(C(=O)O)N3C(=O)C(NC(=O)/C(=N\OCC(=O)O)c4csc(N)n4)C3SC2)n1 (centres unmarked) [Compound 3] | – | 10.4 ± 1.1%
CO/N=C(\C(=O)NC1C(=O)N2C(C(=O)O)=C(Cn3cc[nH]c(=O)c3=O)CSC12)c1csc(N)n1 (centres unmarked) | ≥ 3000 mg/kg | –
CO/N=C(\C(=O)NC1C(=O)N2C(C(=O)O)=C(Cn3[nH]c(=O)ccc3=O)CSC12)c1csc(N)n1 (centres unmarked) | ≥ 3000 mg/kg | –

Reference: patent US4717767A, “7-amino-3-(pyrazinylmethyl) or (pyridazinylmethyl)-cephalosporins” (Toyama Chemical Co., Ltd., priority 1982, dated 1988)
